# Source: ChEMBL document CHEMBL1201861, “Genomics of Drug Sensitity in Cancer screening data, Wellcome Trust Sanger Institute”
# Experiments:
# Type in all cases: functional, cell-based
# NCCIT = test: SANGER: Inhibition of human NCCIT cell growth in a cell viability assay.
# NCI-H292 = test: cells; conditions: Homo sapiens;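 further: growth inhibition of NCI-H292 cells, read out with a cell viability assay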
# Description: SANGER: Inhibition of human NCI-H292 cell growth in a cell viability assay.
# SW48 = test: cells; conditions: Homo sapiens;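 further: growth inhibition of SW48 cells, read out with a cell viability assay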
# Description: SANGER: Inhibition of human SW48 cell growth in a cell viability assay.
# KYSE-270 = test: cells; conditions: Homo sapiens;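 further: cell growth inhibition measured with a viability assay in the human KYSE-270 line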
# Description: SANGER: Inhibition of human KYSE-270 cell growth in a cell viability assay.
# EFO-27 = test: cells; conditions: Homo sapiens;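 further: growth inhibition of EFO-27 cells, read out with a cell viability assay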
# Description: SANGER: Inhibition of human EFO-27 cell growth in a cell viability assay.
# CAL-72 = test: cells; conditions: Homo sapiens;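 further: cell viability assay measuring inhibition of proliferation in the CAL-72 cell line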
# Description: SANGER: Inhibition of human CAL-72 cell growth in a cell viability assay.
# NCI-H2122 = test: cells; conditions: Homo sapiens;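 further: growth inhibition of the cells, read out with a cell viability assay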
# Description: SANGER: Inhibition of human NCI-H2122 cell growth in a cell viability assay.
# Raji = test: cells; conditions: Homo sapiens;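 further: cell viability assay measuring inhibition of Raji cell growth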
# Description: SANGER: Inhibition of human Raji cell growth in a cell viability assay.
# DG-75 = test: cells; conditions: Homo sapiens;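 further: growth inhibition of DG-75 cells, read out with a cell viability assay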
# Description: SANGER: Inhibition of human DG-75 cell growth in a cell viability assay.
# SW13 = test: cells; conditions: Homo sapiens;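 further: IC50 is inhibition of SW13 cell growth, read out with a cell viability assay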
# Description: SANGER: Inhibition of human SW13 cell growth in a cell viability assay.
# CAPAN-1 = test: cells; conditions: Homo sapiens;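 further: growth suppression of CAPAN-1 cells, read out by a cell viability assay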
# Description: SANGER: Inhibition of human CAPAN-1 cell growth in a cell viability assay.
# CAL-39 = test: cells; conditions: Homo sapiens;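 further: cell viability assay measuring growth inhibition of CAL-39 cells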
# Description: SANGER: Inhibition of human CAL-39 cell growth in a cell viability assay.
# MHH-CALL-2 = test: cells; conditions: Homo sapiens;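 further: growth inhibition of the cell line, read out in a cell viability assay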
# Description: SANGER: Inhibition of human MHH-CALL-2 cell growth in a cell viability assay.
# OAW-28 = test: cells; conditions: Homo sapiens;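 further: growth inhibition of OAW-28 cells, read out with a cell viability assay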
# Description: SANGER: Inhibition of human OAW-28 cell growth in a cell viability assay.
# KYSE-150 cell line = test: cells; conditions: Homo sapiens;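 further: growth inhibition of human KYSE-150 cells, read out with a cell viability assay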
# Description: SANGER: Inhibition of human KYSE-150 cell growth in a cell viability assay.
# A673 = test: cells; conditions: Homo sapiens;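 further: growth inhibition of human A673 cells, read out through a cell viability assay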
# Description: SANGER: Inhibition of human A673 cell growth in a cell viability assay.
# HuO-3N1 = test: cells; conditions: Homo sapiens;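 further: cell viability readout used to measure how strongly compounds suppress proliferation of human HuO-3N1 cells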
# Description: SANGER: Inhibition of human HuO-3N1 cell growth in a cell viability assay.
# G-361 = test: cells; conditions: Homo sapiens
# EFO-21 = test: cells; conditions: Homo sapiens;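 further: growth inhibition of EFO-21 cells measured with a viability assay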
# Description: SANGER: Inhibition of human EFO-21 cell growth in a cell viability assay.
# U-698-M = test: cells; conditions: Homo sapiens
# Description: SANGER: Inhibition of human U-698-M cell growth in a cell viability assay.
# BXPC-3 = test: cells; conditions: Homo sapiens;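 further: growth inhibition of human BxPC-3 cells, read out by a cell viability assay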
# Description: SANGER: Inhibition of human BxPC-3 cell growth in a cell viability assay.
# KYSE-510 = test: cells; conditions: Homo sapiens;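 further: cell viability readout used to measure how strongly growth of the cell line is suppressed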
# Description: SANGER: Inhibition of human KYSE-510 cell growth in a cell viability assay.
# NUGC-3 = test: cells; conditions: Homo sapiens;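 further: growth inhibition of human NUGC-3 cells, read out with a cell viability assay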
# Description: SANGER: Inhibition of human NUGC-3 cell growth in a cell viability assay.
# RPMI 8402 = test: SANGER: Inhibition of human RPMI-8402 cell growth in a cell viability assay.
# LOUCY = test: cells; conditions: Homo sapiens;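 further: growth inhibition of human LOUCY cells, read out with a cell viability assay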
# Description: SANGER: Inhibition of human LOUCY cell growth in a cell viability assay.
# D-247MG = test: cells; conditions: Homo sapiens
# Description: SANGER: Inhibition of human D-247MG cell growth in a cell viability assay.
# CAL-120 = test: cells; conditions: Homo sapiens;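 further: cell growth inhibition, read out as cell viability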
# Description: SANGER: Inhibition of human CAL-120 cell growth in a cell viability assay.
# SNU-16 = test: cells; conditions: Homo sapiens;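 further: growth inhibition of human SNU-16 cells, determined with a cell viability readout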
# Description: SANGER: Inhibition of human NCI-SNU-16 cell growth in a cell viability assay.
# SW837 = test: cells; conditions: Homo sapiens;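 further: growth inhibition of SW837 cells, determined with a cell viability assay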
# Description: SANGER: Inhibition of human SW837 cell growth in a cell viability assay.
# BT-20 = test: cells; conditions: Homo sapiens;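 further: cell viability assay measuring suppression of growth in human BT-20 cells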
# Description: SANGER: Inhibition of human BT-20 cell growth in a cell viability assay.
# NCI-H2452 = test: cells; conditions: Homo sapiens;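 further: growth inhibition of NCI-H2452 cells, read out with a cell viability assay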
# Description: SANGER: Inhibition of human NCI-H2452 cell growth in a cell viability assay.
# HCC70 = test: cells; conditions: Homo sapiens;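 further: cell viability assay measuring how strongly the compound suppresses proliferation of HCC70 cells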
# Description: SANGER: Inhibition of human HCC70 cell growth in a cell viability assay.
# MDA-MB-453 = test: cells; conditions: Homo sapiens
# Description: SANGER: Inhibition of human MDA-MB-453 cell growth in a cell viability assay.
# SCC-9 = test: cells; conditions: Homo sapiens;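 further: Read-out is a cell viability assay, with values giving inhibition of cell growth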
# Description: SANGER: Inhibition of human SCC-9 cell growth in a cell viability assay.
# HSC-4 = test: cells; conditions: Homo sapiens;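 further: growth inhibition of human HSC-4 cells, read out with a cell viability assay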
# Description: SANGER: Inhibition of human HSC-4 cell growth in a cell viability assay.
# BHT-101 = test: cells; conditions: Homo sapiens
# Description: SANGER: Inhibition of human BHT-101 cell growth in a cell viability assay.
# TE-15 = test: cells; conditions: Homo sapiens;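 further: cell viability readout of growth inhibition in TE-15 cells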
# Description: SANGER: Inhibition of human TE-15 cell growth in a cell viability assay.
# SW756 = test: cells; conditions: Homo sapiens;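 further: growth inhibition of human SW756 cells, read out with a cell viability assay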
# Description: SANGER: Inhibition of human SW756 cell growth in a cell viability assay.
# NCI-H1623 = test: cells; conditions: Homo sapiens;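 further: cell viability assay used as the read-out for growth inhibition of NCI-H1623 cells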
# Description: SANGER: Inhibition of human NCI-H1623 cell growth in a cell viability assay.
# NCI-H2170 = test: cells; conditions: Homo sapiens;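 further: cell viability assay measuring growth inhibition of human NCI-H2170 cancer cells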
# Description: SANGER: Inhibition of human NCI-H2170 cell growth in a cell viability assay.
# T98G = test: cells; conditions: Homo sapiens;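 further: growth inhibition of T98G cells, read out by a cell viability assay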
# Description: SANGER: Inhibition of human T98G cell growth in a cell viability assay.
# SF-295 = test: cells; conditions: Homo sapiens;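 further: growth inhibition of SF-295 cells, read out with a cell viability assay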
# Description: SANGER: Inhibition of human SF295 cell growth in a cell viability assay.
# MG-63 = test: cells; conditions: Homo sapiens;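 further: growth inhibition of human MG-63 cells, read out with a cell viability assay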
# Description: SANGER: Inhibition of human MG-63 cell growth in a cell viability assay.
# RCM-1 = test: cells; conditions: Homo sapiens;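 further: growth inhibition of the RCM-1 line, determined with a cell viability readout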
# Description: SANGER: Inhibition of human RCM-1 cell growth in a cell viability assay.
# HCT-15 = test: cells; conditions: Homo sapiens;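 further: cell viability readout, IC50 reflecting suppression of HCT-15 cell growth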
# Description: SANGER: Inhibition of human HCT-15 cell growth in a cell viability assay.
# SNU-449 = test: cells; conditions: Homo sapiens
# Description: SANGER: Inhibition of human SNU-449 cell growth in a cell viability assay.
# SKG-IIIa = test: cells; conditions: Homo sapiens;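 further: cell growth inhibition, read out with a cell viability assay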
# Description: SANGER: Inhibition of human SKG-IIIa cell growth in a cell viability assay.
# HMV-2 cell line = test: cells; conditions: Homo sapiens;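 further: growth inhibition of HMV-II cells, read out with a cell viability assay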
# Description: SANGER: Inhibition of human HMV-II cell growth in a cell viability assay.
# MFE-280 = test: cells; conditions: Homo sapiens;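 further: growth inhibition of MFE-280 cells, determined with a cell viability readout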
# Description: SANGER: Inhibition of human MFE-280 cell growth in a cell viability assay.
# PFSK-1 = test: cells; conditions: Homo sapiens;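 further: cell viability assay measuring how strongly compounds suppress growth of human PFSK-1 cells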
# Description: SANGER: Inhibition of human PFSK-1 cell growth in a cell viability assay.
# DoTc2-4510 = test: cells; conditions: Homo sapiens
# HLE = test: cells; conditions: Homo sapiens;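 further: growth inhibition of human HLE cells, read out by a cell viability assay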
# Description: SANGER: Inhibition of human HLE cell growth in a cell viability assay.
# LC-1F = test: cells; conditions: Homo sapiens;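 further: growth inhibition of human LC-1F cells, read out with a cell viability assay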
# Description: SANGER: Inhibition of human LC-1F cell growth in a cell viability assay.
# WM-115 = test: cells; conditions: Homo sapiens
# Description: SANGER: Inhibition of human WM-115 cell growth in a cell viability assay.
# A253 cell line = test: cells; conditions: Homo sapiens;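 further: growth inhibition of A253 cells, read out with a cell viability assay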
# Description: SANGER: Inhibition of human A253 cell growth in a cell viability assay.
# NCI-H1693 = test: cells; conditions: Homo sapiens;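 further: growth inhibition of the human cell line, read out with a cell viability assay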
# Description: SANGER: Inhibition of human NCI-H1693 cell growth in a cell viability assay.
# SCC-3 = test: cells; conditions: Homo sapiens;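 further: cell viability assay measuring inhibition of SCC-3 cell growth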
# Description: SANGER: Inhibition of human SCC-3 cell growth in a cell viability assay.
# NCI-H1651 = test: cells; conditions: Homo sapiens
# Description: SANGER: Inhibition of human NCI-H1651 cell growth in a cell viability assay.
# NCI-H2052 = test: cells; conditions: Homo sapiens
# Description: SANGER: Inhibition of human NCI-H2052 cell growth in a cell viability assay.
# REH = test: cells; conditions: Homo sapiens
# Description: SANGER: Inhibition of human REH cell growth in a cell viability assay.
# TUR = test: cells; conditions: Homo sapiens
# Description: SANGER: Inhibition of human TUR cell growth in a cell viability assay.
# U-118-MG = test: cells; conditions: Homo sapiens
# Description: SANGER: Inhibition of human U-118-MG cell growth in a cell viability assay.
# NCI-H1703 = test: cells; conditions: Homo sapiens
# Description: SANGER: Inhibition of human NCI-H1703 cell growth in a cell viability assay.
structure (smiles),measurement,setting,value
Fc1cc(-c2cc[nH]/c(=N/c3ccc(-n4cnc(N5CCOCC5)n4)cc3)n2)cc(N2CCOCC2)c1,IC50,NCCIT,398 nM
same,IC50,NCI-H292,508 nM
same,IC50,SW48,742 nM
same,IC50,KYSE-270,222 nM
same,IC50,EFO-27,413 nM
same,IC50,CAL-72,> 5120 nM
same,IC50,NCI-H2122,238 nM
same,IC50,Raji,495 nM
same,IC50,DG-75,1290 nM
same,IC50,SW13,1380 nM
same,IC50,CAPAN-1,394 nM
same,IC50,CAL-39,309 nM
same,IC50,MHH-CALL-2,762 nM
same,IC50,OAW-28,1450 nM
same,IC50,KYSE-150 cell line,664 nM
same,IC50,A673,1120 nM
same,IC50,HuO-3N1,1570 nM
same,IC50,G-361,266 nM
same,IC50,EFO-21,913 nM
same,IC50,U-698-M,282 nM
same,IC50,BXPC-3,351 nM
same,IC50,KYSE-510,447 nM
same,IC50,NUGC-3,687 nM
same,IC50,RPMI 8402,605 nM
same,IC50,LOUCY,112 nM
same,IC50,D-247MG,4670 nM
same,IC50,CAL-120,1420 nM
same,IC50,SNU-16,> 5120 nM
same,IC50,SW837,2950 nM
same,IC50,BT-20,493 nM
same,IC50,NCI-H2452,1690 nM
same,IC50,HCC70,350 nM
same,IC50,MDA-MB-453,> 5120 nM
same,IC50,SCC-9,218 nM
same,IC50,HSC-4,4250 nM
same,IC50,BHT-101,667 nM
same,IC50,TE-15,375 nM
same,IC50,SW756,2060 nM
same,IC50,NCI-H1623,1300 nM
same,IC50,NCI-H2170,745 nM
same,IC50,T98G,567 nM
same,IC50,SF-295,555 nM
same,IC50,MG-63,669 nM
same,IC50,RCM-1,1760 nM
same,IC50,HCT-15,258 nM
same,IC50,SNU-449,522 nM
same,IC50,SKG-IIIa,4890 nM
same,IC50,HMV-2 cell line,151 nM
same,IC50,MFE-280,> 5120 nM
same,IC50,PFSK-1,811 nM
same,IC50,DoTc2-4510,225 nM
same,IC50,HLE,624 nM
same,IC50,LC-1F,2530 nM
same,IC50,WM-115,> 5120 nM
same,IC50,A253 cell line,261 nM
same,IC50,NCI-H1693,> 5120 nM
same,IC50,SCC-3,582 nM
same,IC50,NCI-H1651,1070 nM
same,IC50,NCI-H2052,1650 nM
same,IC50,REH,722 nM
same,IC50,TUR,363 nM
same,IC50,U-118-MG,> 5120 nM
same,IC50,NCI-H1703,591 nM
